# From patent publication US20240352010A1, “SUBSTITUTED 1,2,4-THIADIAZOLYL NICOTINAMIDES, SALTS OR N-OXIDES THEREOF AND THEIR USE AS HERBICIDALLY ACTIVE SUBSTANCES” (BayerAktiengesellschaft, priority 2021, published 2024)
# What was measured:
# Type in all cases: in vivo
# [1] = system: Matricaria inodora (MATIN); assay: Herbicidal pre-emergence action, MATIN
# From the text: (§1) Seeds of mono- and dicotyledonous weed plants were sown in plastic pots (double sowings with one species of mono- and one species of dicotyledonous weed plants per pot), in sandy loam, and covered with soil. The compounds according to the invention, formulated in the form of wettable powders (WP) or as emulsifiable concentrates (EC), were applied to the surface of the covering soil as an aqueous suspension or as an emulsion, with the addition of 0.5% of an additive, at an application rate of 600 litres of water per hectare (converted). Following treatment, the pots were placed in a greenhouse and kept under optimum growth conditions for the test plants. The visual grading of the damage to the test plants is carried out after ca. 3 weeks in comparison to untreated controls (herbicidal effect in percent (%): 100% effect=plants have died, 0% effect=as control plants). Seeds of mono- and dicotyledonous weed plants were sown in plastic pots (double sowings with one species of mono- and one species of dicotyledonous weed plants per pot), in sandy loam, and covered with soil. The compounds according to the invention, formulated in the form of wettable powders (WP) or as emulsifiable concentrates (EC), were applied to the surface of the covering soil as an aqueous suspension or as an emulsion, with the addition of 0.5% of an additive, at an application rate of 600 litres of water per hectare (converted). Following treatment, the pots were placed in a greenhouse and kept under optimum growth conditions for the test plants. The visual grading of the damage to the test plants is carried out after ca. 3 weeks in comparison to untreated controls (herbicidal effect in percent (%): 100% effect=plants have died, 0% effect=as control plants).
# [2] = system: Abutilon theophrasti (ABUTH); assay: Herbicidal pre-emergence action, ABUTH; details: 1280 g/ha, visual grading after ca. 3 weeks vs untreated controls (Table A1)
# From the text: Seeds of mono- and dicotyledonous weed plants were sown in plastic pots (double sowings with one species of mono- and one species of dicotyledonous weed plants per pot), in sandy loam, and covered with soil. The compounds according to the invention, formulated in the form of wettable powders (WP) or as emulsifiable concentrates (EC), were applied to the surface of the covering soil as an aqueous suspension or as an emulsion, with the addition of 0.5% of an additive, at an application rate of 600 litres of water per hectare (converted). Following treatment, the pots were placed in a greenhouse and kept under optimum growth conditions for the test plants. The visual grading of the damage to the test plants is carried out after ca. 3 weeks in comparison to untreated controls (herbicidal effect in percent (%): 100% effect=plants have died, 0% effect=as control plants).
# Poa annua (POAAN) = assay: Herbicidal post-emergence action, POAAN
# From the text: (§2) Seeds of mono- and dicotyledonous weed plants were sown in plastic pots (double sowings with one species of mono- and one species of dicotyledonous weed plants per pot), in sandy loam, covered with soil and grown under controlled growth conditions. 2 to 3 weeks after sowing, the test plants were sprayed in the single-leaf stage. The compounds according to the invention, formulated in the form of wettable powders (WP) or as emulsifiable concentrates (EC), were sprayed onto the green plant parts as an aqueous suspension or as an emulsion, with the addition of 0.5% of an additive, at an application rate of 600 litres of water per hectare (converted). The test plants were placed in the greenhouse for ca. 3 weeks under optimum growth conditions, and then the effect of the preparations is assessed visually in comparison with untreated controls (herbicidal effect in percent (%): 100% effect=plants have died, 0% effect=as control plants). […]
# [3] = system: Echinochloa crus-galli (ECHCG); assay: Herbicidal post-emergence action, ECHCG
# From the text: as §2
# Lolium rigidum (LOLRI) [4] = assay: Herbicidal pre-emergence action, LOLRI
# From the text: as §1
# Veronica persica (VERPE) [5] = assay: Herbicidal pre-emergence action, VERPE
# From the text: as §1
# Veronica persica (VERPE) [6] = assay: Herbicidal post-emergence action, VERPE
# From the text: as §2
# [7] = system: Echinochloa crus-galli (ECHCG); assay: Herbicidal pre-emergence action, ECHCG
# From the text: as §1
# Stellaria media (STEME) = assay: Herbicidal pre-emergence action, STEME
# From the text: as §1
# [8] = system: Amaranthus retroflexus (AMARE); assay: Herbicidal pre-emergence action, AMARE
# From the text: as §1
# Lolium rigidum (LOLRI) [9] = assay: Herbicidal post-emergence action, LOLRI
# From the text: as §2
# [10] = system: Amaranthus retroflexus (AMARE); assay: Herbicidal post-emergence action, AMARE
# From the text: as §2
# Kochia scoparia (KCHSC) = assay: Herbicidal pre-emergence action, KCHSC
# From the text: as §1
# [11] = 320 g/ha, visual grading after ca. 3 weeks vs untreated controls (Table C3)
# [12] = 1280 g/ha, visual grading after ca. 3 weeks vs untreated controls (Table A6)
# [13] = 320 g/ha, assessed visually after ca. 3 weeks vs untreated controls (Table D3)
# [14] = 1280 g/ha, assessed visually after ca. 3 weeks vs untreated controls (Table B8)
# [15] = 1280 g/ha, assessed visually after ca. 3 weeks vs untreated controls (Table B3)
# [16] = 320 g/ha, visual grading after ca. 3 weeks vs untreated controls (Table C2)
# [17] = 1280 g/ha, visual grading after ca. 3 weeks vs untreated controls (Table A5)
# [18] = 320 g/ha, visual grading after ca. 3 weeks vs untreated controls (Table C7)
# [19] = 1280 g/ha, visual grading after ca. 3 weeks vs untreated controls (Table A10)
# [20] = 320 g/ha, assessed visually after ca. 3 weeks vs untreated controls (Table D5)
# [21] = 1280 g/ha, assessed visually after ca. 3 weeks vs untreated controls (Table B10)
# [22] = 1280 g/ha, visual grading after ca. 3 weeks vs untreated controls (Table A3)
# [23] = 320 g/ha, visual grading after ca. 3 weeks vs untreated controls (Table C6)
# [24] = 1280 g/ha, visual grading after ca. 3 weeks vs untreated controls (Table A9)
# [25] = 320 g/ha, visual grading after ca. 3 weeks vs untreated controls (Table C8)
# [26] = 1280 g/ha, visual grading after ca. 3 weeks vs untreated controls (Table A11)
# [27] = 1280 g/ha, assessed visually after ca. 3 weeks vs untreated controls (Table B5)
# [28] = 320 g/ha, assessed visually after ca. 3 weeks vs untreated controls (Table D6)
# [29] = 1280 g/ha, assessed visually after ca. 3 weeks vs untreated controls (Table B11)
# [30] = 320 g/ha, visual grading after ca. 3 weeks vs untreated controls (Table C1)
# [31] = 1280 g/ha, visual grading after ca. 3 weeks vs untreated controls (Table A4)
Compound,"herbicidal effect in percent, MATIN [1, 11] [%]","herbicidal effect in percent, MATIN [1, 12] [%]","herbicidal effect in percent, ABUTH [2] [%]","herbicidal effect in percent, POAAN (Poa annua (POAAN); [13]) [%]","herbicidal effect in percent, POAAN (Poa annua (POAAN); [14]) [%]","herbicidal effect in percent, ECHCG [3, 15] [%]","herbicidal effect in percent, LOLRI (Lolium rigidum (LOLRI) [4]; [16]) [%]","herbicidal effect in percent, LOLRI (Lolium rigidum (LOLRI) [4]; [17]) [%]","herbicidal effect in percent, VERPE (Veronica persica (VERPE) [5]; [18]) [%]","herbicidal effect in percent, VERPE (Veronica persica (VERPE) [5]; [19]) [%]","herbicidal effect in percent, VERPE (Veronica persica (VERPE) [6]; [20]) [%]","herbicidal effect in percent, VERPE (Veronica persica (VERPE) [6]; [21]) [%]","herbicidal effect in percent, ECHCG [7, 22] [%]","herbicidal effect in percent, STEME (Stellaria media (STEME); [23]) [%]","herbicidal effect in percent, STEME (Stellaria media (STEME); [24]) [%]","herbicidal effect in percent, AMARE [8, 26] [%]","herbicidal effect in percent, LOLRI (Lolium rigidum (LOLRI) [9]; [27]) [%]","herbicidal effect in percent, AMARE [10, 28] [%]","herbicidal effect in percent, AMARE [10, 29] [%]","herbicidal effect in percent, KCHSC (Kochia scoparia (KCHSC); [31]) [%]",further results
"O=C(Nc1ncns1)c1c(C2CC2)ccnc1Cl [Example I-003, 2-chloro-4-cyclopropyl-N-(1,2,4-thiadiazol-5-yl)pyridine-3-carboxamide]",100,100,90,90,100,90,90,90,90,90,90,100,90,100,100,100,90,100,100,100,"herbicidal effect in percent, AMARE [8, 25]: 90%; herbicidal effect in percent, KCHSC (Kochia scoparia (KCHSC); [30]): 90%"
O=C(Nc1ncns1)c1c(C2CC2)ccnc1F [Example I-005],100,100,90,100,100,90,100,100,90,100,100,100,90,100,100,100,100,100,100,100,"herbicidal effect in percent, ECHCG ([7]; 320 g/ha, visual grading after ca. 3 weeks vs untreated controls (Table C9)): 90%; herbicidal effect in percent, AMARE [8, 25]: 100%; herbicidal effect in percent, LOLRI (Lolium rigidum (LOLRI) [9]; 320 g/ha, assessed visually after ca. 3 weeks vs untreated controls (Table D9)): 100%; herbicidal effect in percent, KCHSC (Kochia scoparia (KCHSC); [30]): 100%"
O=C(Nc1nc(Cl)ns1)c1c(C2CC2)ccnc1Cl [Example I-013],90,100,90,90,90,90,–,90,–,90,90,90,90,90,100,90,90,90,90,90,"herbicidal effect in percent, ECHCG ([3]; 320 g/ha, assessed visually after ca. 3 weeks vs untreated controls (Table D7)): 90%"
